Tests used:
[1] = molecular target: wild type MLL1 four-member complex (MLL1-4C) (Homo sapiens, UniProt Q03164); experiment: MLL1 LC-MS Assay; type: biochemical; settings: read-out: LCMS
How it was run: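 Compound pre-incubated 20 min with MLL1-4C and SAM, then H3[1-21]-biotin (H3K4me0) substrate added; final 30 nM enzyme, 2.5 μM SAM, 10 μM peptide in Tris pH 8.0 with MgCl2, DTT, Tween 20, BSA. After 120 min at rt, TFA-quenched SAH quantified by LC-MS/MS with d4-SAH; IC50 from dose-response fit.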

[2] = molecular target: wild type MLL1 five-member complex (MLL1-5C) (Homo sapiens, UniProt Q03164); experiment: MLL1 Flashplate Assay; type: biochemical; settings: read-out: MLL1 flash plate
Procedure: MLL1 Flashplate Assay To assess the compound potency in MLL1 Flashplate assay, compounds were serially diluted 3-fold in DMSO to obtain a total of twelve concentrations. Then the test compounds at each concentration (250 nL of each) were transferred by Mosquito into Corning #3675 384-well plate. Solutions (15 μL) of 4.2 nM wild type MLL1 five-member complex (MLL1-5C) in the assay buffer (20 mM Tris-HCl, pH 8.0, 0.01% Tween 20, 1 mM DTT, 0.01% BSA) were added to the wells. A 10 μL solution of 2.5 μM of the peptide substrate H3K4me0 (histone H3[1-21]-Biotin) and 1.25 μM ^3H-SAM in the reaction buffer was then added to initiate each reaction. The final components in the reaction solution include 2.5 nM MLL1-5C, 0.5 μM ^3H-SAM, and 1 μM H3K4me0 with varying concentration of the compounds. A positive control consisted of 2.5 nM MLL1-5C, 0.5 μM ^3H-SAM, and 1 μM substrate in the absence of the test compound, and a negative control consisted of 0.5 μM ^3H-SAM, and 1 μM substrate only. Each reaction was incubated at rt for 90 min, then stopped by addition of 5 μL per of quench solution (0.5 mM SAM in assay buffer). 25 μL of each reaction solution was transferred to FlashPlate streptavidin 384-well microplate (PerkinElmer). After at least 1 h incubation at rt, the wells were washed three times with 0.1% Tween-20 in dH2O using the BioTek plate washer. The plates were then read in MicroBeta (PerkinElmer). The radioactive readouts were then normalized based on the values coming from the positive and negative controls to give percent enzyme activities. The data were then fit to a dose response equation using the program Helios to get the IC50 values of the test compounds.

[3] = tested on: H3K4me3 in MV4-11 cells; experiment: MV4-11 H3K4me3 Cellular ELISA Assay; type: cell-based
How it was run: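 MV4-11 cells were treated for 48 h with 12-point 1:3 compound dilutions (from 10 mM stock), then histones were acid-extracted with 0.5M HCl and neutralized. H3K4me3 and total H3 were measured by HRP chemiluminescent ELISA, and inhibition versus DMSO after H3 normalization was curve-fitted for IC50.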

[4] = tested on: MV4-11 cells; experiment: MV4-11 6-Day Cell Growth CTG (CellTiter-Glo) Assay; type: cell-based; settings: MV4-11 cell growth CellTiter-Glo, 6 days
How it was run: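 MV4-11 AML cells (RPMI 1640, 10% FBS) seeded at 300 cells/well and exposed for 6 days at 37 °C to a 12-point, 1:3 compound series starting at 50 μM final. Viable cells read by CellTiter-Glo luminescence; percent inhibition versus DMSO-only wells fitted to dose-response curves for IC50.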

Compound | IC50 [1] [µM] | IC50 [2] [µM] | IC50 ([3]; 48 hours) [µM] | IC50 [4] [µM] | IC50 ([3]; Homo sapiens, MV4-11, 48 h) [µM] | IC50 ([4]; Homo sapiens, MV4-11, 144 h) [µM]
Nc1ncnc2c1ncn2Cc1c(Br)cc(Cl)cc1N1CC[C@](N)(C(=O)NC2CC2)C1 [Example 1, (R)-3-amino-1-(2-((6-amino-9H-purin-9-yl)methyl)-3-bromo-5-chlorophenyl)-N-cyclopropylpyrrolidine-3-carboxamide] | < 0.05 | < 0.06 | – | – | < 1.9 | 2 to 3
Nc1ncnc2c1ncn2Cc1c(-c2ccc3c(c2)CCO3)cc(Cl)cc1N1CC[C@](N)(C(=O)NC2CC2)C1 [Example 3] | > 0.1 | > 0.1 | – | – | > 3 | > 3
Nc1ncnc2c1ncn2Cc1cc(F)ccc1N1CC[C@](N)(C(=O)NC2CC2)C1 [Example 14] | > 0.1 | > 0.1 | – | – | < 1.9 | 2 to 3
Nc1ncnc2c1ncn2Cc1c(N2CC[C@](N)(C(=O)NC3CC3)C2)ccc2c1OC(F)(F)O2 [Example 15] | < 0.05 | < 0.06 | – | – | < 1.9 | < 2
Nc1ncnc2c1ncn2Cc1c(Br)c(F)c2c(c1N1CC[C@](N)(C(=O)NC3CC3)C1)OCC2 [Example 20] | < 0.05 | < 0.06 | – | – | < 1.9 | < 2
Nc1ncnc2c1ncn2Cc1c(N2CC[C@](N)(c3ccccn3)C2)ccc(F)c1C(F)(F)F [Example 23] | < 0.05 | < 0.06 | – | – | < 1.9 | < 2
Nc1ncnc2c1ncn2Cc1c(Br)cc2c(c1N1CCC(N)(C(=O)NC3CC3)C1)OCO2 (centres unmarked) [Example 31] | < 0.05 | < 0.06 | – | – | < 1.9 | < 2
COC[C@@]1(N)CCN(c2cc(Cl)cc(Br)c2Cn2cnc3c(N)ncnc32)C1 [Example 32, (R)-9-(2-(3-amino-3-(methoxymethyl)pyrrolidin-1-yl)-6-bromo-4-chlorobenzyl)-9H-purin-6-amine] | > 0.1 | 0.06 to 0.1 | – | – | > 3 | > 3
CN(C)Cc1c(F)ccc(N2CC[C@](N)(C(=O)NC3CC3)C2)c1Cn1cnc2c(N)ncnc21 [Example 45, (R)-3-amino-1-(2-((6-amino-9H-purin-9-yl)methyl)-3-((dimethylamino)methyl)-4-fluorophenyl)-N-cyclopropylpyrrolidine-3-carboxamide] | 0.05 to 0.1 | > 0.1 | – | – | < 1.9 | < 2
Nc1ncnc2c1ncn2Cc1c(N2CC[C@](N)(C(=O)NC3CC3)C2)ccc(F)c1CN1CC(F)(F)C1 [Example 52] | 0.05 to 0.1 | 0.06 to 0.1 | – | – | < 1.9 | < 2
Nc1ncnc2c1ncn2Cc1c(N2CC[C@](N)(C(=O)NC3CC3)C2)ccc(F)c1CN1CCOCC1 [Example 65] | < 0.05 | > 0.1 | – | – | < 1.9 | < 2
CC1(C)Cc2ccc(N3CC[C@](N)(C(=O)NC4CC4)C3)c(Cn3cnc4c(N)ncnc43)c2O1 [Example 114] | > 0.1 | > 0.1 | – | – | > 3 | –

Second part, the compound after the results:

IC50 [1] [µM] | IC50 [2] [µM] | IC50 ([3]; 48 hours) [µM] | IC50 [4] [µM] | IC50 ([3]; Homo sapiens, MV4-11, 48 h) [µM] | IC50 ([4]; Homo sapiens, MV4-11, 144 h) [µM] | Compound
> 0.1 | > 0.1 | > 3 | < 2 | – | – | Nc1ncnc2c1ncn2Cc1c(Br)cc(Cl)cc1N1CC[C@](N)(CO)C1 (stereo in doubt) [Example 107]
< 0.05 | < 0.06 | – | – | < 1.9 | < 2 | CCc1cc(Cl)cc(N2CC[C@](N)(C(=O)NC3CC3)C2)c1Cn1cnc2c(N)ncnc21 [Example 2, (R)-3-amino-1-(2-((6-amino-9H-purin-9-yl)methyl)-5-chloro-3-ethylphenyl)-N-cyclopropylpyrrolidine-3-carboxamide]
> 0.1 | > 0.1 | – | – | 1.9 to 3 | > 3 | N#Cc1c(F)ccc(N2CC[C@](N)(C(=O)NC3CC3)C2)c1Cn1cnc2c(N)ncnc21 [Example 4]
> 0.1 | > 0.1 | – | – | < 1.9 | < 2 | NC(=O)[C@@]1(N)CCN(c2cc(Cl)cc(-c3cccc(C4CCCCC4)c3)c2Cn2cnc3c(N)ncnc32)C1 [Example 16]
< 0.05 | < 0.06 | – | – | < 1.9 | < 2 | C=CC(=O)N1CCN(C(=O)[C@@]2(N)CCN(c3ccc(F)c(CC)c3Cn3cnc4c(N)ncnc43)C2)CC1 [Example 17]
< 0.05 | < 0.06 | – | – | < 1.9 | < 2 | Nc1ncnc2c1ncn2Cc1c(Br)cc(Cl)cc1N1CC[C@](N)(c2nc[nH]n2)C1 [Example 18, (R)-9-(2-(3-amino-3-(1H-1,2,4-triazol-3-yl)pyrrolidin-1-yl)-6-bromo-4-chlorobenzyl)-9H-purin-6-amine]
0.05 to 0.1 | < 0.06 | – | – | < 1.9 | 2 to 3 | Nc1ncnc2c1ncn2Cc1c(Br)cc(Cl)cc1N1CC[C@](N)(CO)C1 [Example 19]
0.05 to 0.1 | 0.06 to 0.1 | – | – | < 1.9 | < 2 | Nc1ncnc2c1ncn2Cc1c(N2CCC(N)(c3ccccn3)C2)ccc(F)c1C(F)(F)F (centres unmarked) [Example 22]
0.05 to 0.1 | < 0.06 | – | – | > 3 | > 3 | Nc1ncnc2c1ncn2Cc1c(Br)cc(Cl)c(Cl)c1N1CC[C@](N)(C(=O)NC2CC2)C1 [Example 43]
0.05 to 0.1 | < 0.06 | – | – | < 1.9 | > 3 | Nc1ncnc2c1ncn2Cc1c(Br)c(Cl)c(Cl)c(Cl)c1N1CCC(N)(C(=O)NC2CC2)C1 (centres unmarked) [Example 44]
< 0.05 | < 0.06 | – | – | < 1.9 | < 2 | Nc1ncnc2c1ncn2Cc1c(N2CC[C@](N)(C(=O)N[C@H]3C[C@@H]3c3ccccc3)C2)ccc(F)c1CN1CCOCC1 [Example 51]
< 0.05 | < 0.06 | – | – | < 1.9 | < 2 | Nc1ncnc2c1ncn2Cc1c(N2CC[C@](N)(C(=O)NC3CC3)C2)ccc(C(F)(F)F)c1CN1CCC1 [Example 62]
< 0.05 | > 0.1 | – | – | > 3 | – | Cn1nnnc1[C@@]1(N)CCN(c2cc(Cl)cc(Br)c2Cn2cnc3c(N)ncnc32)C1 [Example 90, (R)-9-(2-(3-amino-3-(1-methyl-1H-tetrazol-5-yl)pyrrolidin-1-yl)-6-bromo-4-chlorobenzyl)-9H-purin-6-amine]
0.05 to 0.1 | < 0.06 | – | – | > 3 | – | Nc1ncnc2c1ncn2Cc1c(Br)cc2c(c1N1CCC(N)(C(=O)NC3CC3)C1)CCO2 (centres unmarked) [Example 115]

— patent publication US20220380371A1, “MLL1 INHIBITORS AND ANTI-CANCER AGENTS” (NOVARTIS AG, priority 2019, published 2022)
